Measured values from patent publication EP2269600A1, “Treatment of sleep disorders using eplivanserin in COPD patients” (Sanofi-Aventis, priority 2009, dated 2011).

What was measured:
[1] = tested on: patients with chronic (primary) insomnia characterized by sleep maintenance difficulties; assay: Phase 3 study EFC6220: polysomnography (PSG) recordings, 6 weeks, placebo-controlled; format: in vivo
Text: (§1) The Phase 3 program of development of eplivanserin in the treatment of patients with chronic (primary) insomnia characterized by sleep maintenance difficulties consisted of 3 randomized, double-blind (DB), placebo-controlled, efficacy and safety studies designed to assess the efficacy of eplivanserin on sleep maintenance either using polysomnography (PSG) recordings (6-week study EFC6220) or patient-reported outcome (12-week studies LTE6217 and LTE6262) collected daily on sleep questionnaires. They were all double-blind (DB), randomized, placebo-controlled studies. In all studies, treatment period was preceded by a one week, placebo run-in period, designed to check selection criteria for insomnia based on patient reported sleep parameters collected on the daily sleep questionnaires (Studies LTE6217, and LTE6262) or based on PSG recordings during two screening nights in a sleep laboratory (Study EFC6220). Treatment period was followed by a placebo run-out period of 2 weeks designed to assess the effect of abrupt treatment discontinuation. Study EFC6220 was designed to measure the pharmacodynamic activity of eplivanserin on sleep maintenance using PSG recordings in a sleep laboratory. Polysomnograms were recorded in standard conditions during 8 hours in bed. Studies LTE6217 and LTE6262 measured the efficacy of eplivanserin in real life conditions of use at home by collecting daily sleep parameters reported by patients through an Interactive Voice Response System (IVRS).

[2] = tested on: patients with chronic (primary) insomnia characterized by sleep maintenance difficulties; assay: Phase 3 studies LTE6217 and LTE6262: patient-reported sleep parameters, 12 weeks, placebo-controlled; format: in vivo
Text: as §1

[3] = tested on: patients with mild to moderate COPD; assay: COPD phase I study: overnight pulse oximetry (oxygen saturation); format: in vivo
Procedure: (§2) The primary objective of this phase I study was to evaluate the pharmacodynamic (PD) effects of eplivanserin 15 mg single dose versus placebo (P) on respiratory function measured by mean overnight oxygen saturation (SaO2) in patients with mild to moderate COPD. Recorded PD parameters were: • Pulse oximetry continuously recorded overnight, with 02 saturation in %, • Pulmonary function tests (PFTs): spirometry [measuring forced vital capacity (FVC), forced expiratory volume (FEV), peak […] flow rate (PEFR), forced […] flow (FEF)] and plethysmography [evaluating airways resistance and conductance], • Capillary blood gases, • PSG with apnea /hypopnea episodes, sleep global sleep parameters and sleep architecture, • Leeds Sleep Evaluation Questionnaire (LSEQ) and Bond & Lader VAS. Safety and pharmacokinetic parameters were also assessed.
(§3) The study was a single-centre, double-blind, randomized, 2-way crossover, placebo-controlled crossover study with 14 day washout: 15 mg single-dose of eplivanserin (E) vs. placebo (P). Included patients were displaying mild to moderate chronic obstructive pulmonary disease (COPD). The primary end-point was the pulmonary function (02 saturation over the entire night). 28 evaluable patients have been evaluated (COPD severity (FEV1) 50% mild / 50% moderate; Gender: 46.4% M, 53.6% F)

[4] = tested on: patients with mild to moderate COPD; assay: COPD phase I study: spirometry; format: in vivo; settings: Eplivanserin 15 mg single dose minus Placebo
Procedure: as §2, §3

[5] = tested on: patients with mild to moderate COPD; assay: COPD phase I study: plethysmography; format: in vivo
Procedure: as §2, §3

[6] = tested on: patients with mild to moderate COPD; assay: COPD phase I study: capillary blood gases; format: in vivo; settings: 15 mg single dose
Procedure: as §2, §3

[7] = tested on: patients with mild to moderate COPD; assay: COPD phase I study: PSG (apnea/hypopnea episodes, sleep parameters); format: in vivo; settings: 15 mg single dose
Procedure: as §2, §3

[8] = tested on: patients with mild to moderate COPD; assay: COPD phase I study: Leeds Sleep Evaluation Questionnaire and Bond & Lader VAS; format: in vivo; settings: 15 mg single dose
Procedure: as §2, §3

[9] = tested on: patients with mild to moderate COPD; assay: COPD phase I study: safety and tolerability; format: in vivo; settings: for safety / tolerability: 15 mg single dose, mild or moderate COPD
Procedure: as §2, §3

[10] = cited from earlier work
[11] = 5 mg/day, after 6 and 12 weeks of treatment

In the case of `CN(C)CCO/N=C(/C=C/c1ccc(O)cc1)c1ccccc1F` [Eplivanserin, (1Z, 2E)-1-(2-fluorophenyl)-3-(4-hydroxyphenyl)-prop-2-en-1-one-O-(2-dimethylaminoethyl)oxime], the “Stage 1” value ([1]; 5 mg/day compared with placebo) is reported as “decrease of Stage 1”, the “percentage of time spent in sleep Stages 3&4 (SWS or deep sleep)” value ([1]; 5 mg/day compared with placebo) is reported as “increased” and the PSG-WASO ([1]; Week 3 and Week 6, difference with placebo not statistically significant at Week 6) is reported as “decreasing PSG-WASO at Week 3 and Week 6”. The “number of brief awakenings (<1 min)” value ([1]; compared to placebo) was “decreased”, the “sleep onset (PSG-LPS and pr-SOL)” value ([1]; eplivanserin 5 mg) was “did not affect sleep onset” and the “PSG-NAW (LS mean)” value ([1]; eplivanserin 5 mg, Week 3, p<0.0001) was -1.74. The pr-NAW ([1]; eplivanserin 5 mg, Week 3 and Week 6) was “decrease of pr-NAW”, the “PSG-NAW (LS mean)” value ([1]; eplivanserin 5 mg, Week 6, p<0.0001) was -1.82 and the QoS ([1]; in vivo) was “improved”. The REM sleep ([1]; in vivo) was “not affected”, the “SWS/WASO + Stage 1 index” value ([1]; in vivo) was “increase” and the “effect on sleep maintenance (pr-WASO), onset and persistence” value ([2]; 5 mg/day) was “observed from Day 1 and persisted up to 1 year of treatment”. The “mean pr-NAW” value [2, 11] was “reducing”, the pr-TST [2, 11] was “increasing” and the pr-WASO [2, 11] was “consistently and significantly decreasing”. The “Quality of Sleep and Refreshing Quality of Sleep” value ([2]; after 6 and 12 weeks of treatment) was “improved”, the “"sleepiness in the morning" and "ability to concentrate"” value ([2]; compared with placebo, reported by insomniac patients) was “significantly favorable effect” and the sleep onset ([2]; human, in vivo) was “did not affect sleep onset”. For the same compound, the “potential for residual effects (next-day impairment)” value ([2]; safety analyses) was “devoid of next-day impairment”, the “SaO2 (%) during Time in bed, treatment difference LS mean” value ([3]; Eplivanserin 15 mg single dose minus Placebo, P-value 0.2499) was -0.30% and the “Mean oxygen saturation over the entire night (mean ± SD)” value ([3]; eplivanserin 15 mg single dose, finger pulse oximetry) was 93.4 % ± 1.66. The “SaO2 (%) during the sleep stages (stage 1, 2, SWS, REM, wake)” value ([3]; single dose 15 mg vs placebo) was “no effect”, the “Forced vital capacity, treatment difference LS mean” value ([4]; P-value 0.1411) was -0.12 L and the “Forced expiratory volume, treatment difference LS mean” value ([4]; P-value 0.5289) was -0.03 L. The “Peak expiratory flow, treatment difference LS mean” value ([4]; P-value 0.6683) was -0.05 L/S, the “airways resistance and conductance in each patient's subgroup (mild, moderate)” value ([5]; 15 mg single dose vs placebo) was “no difference” and the “Airways resistance, treatment difference LS mean” value ([5]; Eplivanserin 15 mg single dose minus Placebo, P-value 0.4880) was 0.02 KPa * s/l. The “Airways conductance, treatment difference LS mean” value ([5]; Eplivanserin 15 mg single dose minus Placebo, P-value 0.6642) was -0.01 1/KPa * s, the “Capillary blood gases (pH, oxygen partial pressure)” value [6] was “minimally or unaffected” and the “AHI (apnea hypopnea index)” value [7] was “reduction”. For the same compound, the “LPS (latency to persistent sleep)” value [7] was “no change”, the “TST (total sleep time)” value [7] was “increase” and the “WASO (waketime duration after sleep onset)” value [7] was “reduction”. The “number of awakenings after sleep onset” value [7] was “reduction”, the “LSEQ and Bond & Lader VAS post-treatment scores vs baseline” value [8] was “minimally or unaffected” and the safety / tolerability [9] was “well tolerated”. For the same compound, the safety / tolerability ([9]; listed as eplivanserin) was “no safety concern”, the “impairment of respiratory function (SaO2%, spirometry, body plethysmography)” value ([9]; oral single dose 15 mg, in comparison with placebo) was “no impairment of respiratory function was observed” and the half-life time ([10]; average value) was 50 h. For the same compound, the absorbed ([10]; human, in vivo) was over 70%.
